Measurements as given in ChEMBL document CHEMBL5331121, “Preferred Conformation-Guided Discovery of Potent and Orally Active HIF Prolyl Hydroxylase 2 Inhibitors for the Treatment of Anemia” (J Med Chem, 2023).
Activity calls are given as the source filed them. No cut-off for these calls is given here.

Experiments:
Egl nine homolog 1 = Egl nine homolog 1 (Homo sapiens, UniProt Q9GZT9); assay: Binding affinity to […] PHD2 (181 to 426 residues) (unknown origin) by fluorescence polarization assay
[1] = Toxicity in ICR mouse assessed as kidney damage at 50 to 200 mg/kg, po administered every other day for 14 days; assay type: organism-based; details: in vivo, 336 h, dose 50-200 mg/kg, time 14 day
[2] = Toxicity in ICR mouse assessed as change in liver to body weight ratio at 50 to 200 mg/kg, po administered every other day for 14 days; assay type: organism-based; details: in vivo, 336 h, dose 50-200 mg/kg, time 14 day
[3] = Toxicity in ICR mouse assessed as change in lungs to body weight ratio at 50 to 200 mg/kg, po administered every other day for 14 days; assay type: organism-based; details: in vivo, 336 h, dose 50-200 mg/kg, time 14 day
[4] = Upregulation of EPO mRNA level in human Hep3B cells assessed as fold increase at 20 uM incubated for 12 hrs by RT-qPCR analysis; assay type: functional, Hep 3B2
[5] = Mean residence time (0 to infinity) in Sprague-Dawley rat at 10 mg/kg, po measured upto 24 hrs by LC-MS/MS analysis; assay type: ADME, organism-based; details: in vivo
[6] = Oral bioavailability in Sprague-Dawley rat at 10 mg/kg measured upto 24 hrs by LC-MS/MS analysis; assay type: ADME, organism-based; details: in vivo
[7] = Cmax in mouse at 10 mg/kg, po measured upto 24 hrs by LC-MS/MS analysis; assay type: ADME, organism-based; set-up: time < 24 hrs, dose 10 mg/kg, route po; details: in vivo
[8] = biological target: Endothelial PAS domain-containing protein 1 (Homo sapiens) (UniProt Q99814); assay: Induction of HIF-2alpha stabilization in human Hep3B cells at 20 to 50 uM by Western blotting analysis; assay type: cell-based; details: dose 20-50 µM
[9] = Apparent volume of distribution in mouse at 1 mg/kg, iv measured upto 24 hrs by LC-MS/MS analysis; assay type: ADME, organism-based; details: in vivo, read-out: Vz
[10] = Toxicity in ICR mouse assessed as change in heart to body weight ratio at 50 to 200 mg/kg, po administered every other day for 14 days; assay type: organism-based; details: in vivo, 336 h, dose 50-200 mg/kg, time 14 day
[11] = biological target: Hypoxia-inducible factor 1-alpha (Homo sapiens) (UniProt Q16665); assay: Induction of HIF-1alpha stabilization in human Hep3B cells at 20 to 50 uM by Western blotting analysis; assay type: cell-based; details: dose 20-50 µM
[12] = Half life in Sprague-Dawley rat at 1 mg/kg, iv measured upto 24 hrs by LC-MS/MS analysis; assay type: ADME, organism-based; details: in vivo
[13] = Toxicity in ICR mouse assessed as change in spleen to body weight ratio at 50 to 200 mg/kg, po administered every other day for 14 days; assay type: organism-based; details: in vivo, 336 h, dose 50-200 mg/kg, time 14 day
[14] = AUC(0 to infinity) in mouse at 10 mg/kg, po measured upto 24 hrs by LC-MS/MS analysis; assay type: ADME, organism-based; set-up: dose 10 mg/kg, time < 24 hrs, route po; details: in vivo
[15] = Clearance in mouse at 1 mg/kg, iv measured upto 24 hrs by LC-MS/MS analysis; assay type: ADME, organism-based; details: in vivo
[16] = Cmax in Sprague-Dawley rat at 10 mg/kg, po measured upto 24 hrs by LC-MS/MS analysis; assay type: ADME, organism-based; set-up: time < 24 hrs, dose 10 mg/kg, route po; details: in vivo
[17] = AUC(0 to t) in Sprague-Dawley rat at 10 mg/kg, po measured upto 24 hrs by LC-MS/MS analysis; assay type: ADME, organism-based; set-up: time < 24 hrs, dose 10 mg/kg, route po; details: in vivo
[18] = Half life in mouse at 1 mg/kg, iv measured upto 24 hrs by LC-MS/MS analysis; assay type: ADME, organism-based; details: in vivo
[19] = AUC(0 to t) in mouse at 1 mg/kg, iv measured upto 24 hrs by LC-MS/MS analysis; assay type: ADME, organism-based; set-up: time < 24 hrs, dose 1 mg/kg, route iv; details: in vivo
Hep 3B2 [20] = assay: Effect on VEGFA gene expression in human Hep3B cells at 5 to 20 uM incubated for 12 hrs by RT-qPCR analysis; assay type: functional, cell-based; details: dose 5-20 µM
[21] = Metabolic stability in rat liver microsomes assessed as clearance at 1 uM preincubated for 5 mins followed by NADPH addition and measured upto 60 mins by LC-MS/MS analysis; assay type: ADME, Microsome; details: time < 65 min, read-out: CLH
Hep 3B2 [22] = assay: Upregulation of EPO mRNA level in human Hep3B cells incubated for 12 hrs by RT-qPCR analysis; assay type: functional, cell-based; details: dose 5-20 µM
[23] = AUC(0 to t) in Sprague-Dawley rat at 1 mg/kg, iv measured upto 24 hrs by LC-MS/MS analysis; assay type: ADME, organism-based; set-up: dose 1 mg/kg, time < 24 hrs, route iv; details: in vivo
[24] = Tmax in mouse at 10 mg/kg, po measured upto 24 hrs by LC-MS/MS analysis; assay type: ADME, organism-based; details: in vivo
[25] = Apparent volume of distribution in Sprague-Dawley rat at 10 mg/kg, po measured upto 24 hrs by LC-MS/MS analysis; assay type: ADME, organism-based; details: in vivo
[26] = Clearance in mouse at 10 mg/kg, po measured upto 24 hrs by LC-MS/MS analysis; assay type: ADME, organism-based; details: in vivo
Hep 3B2 [27] = assay: Cytotoxicity against human Hep3B cells incubated for 48 hrs by CCK-8 assay; assay type: toxicity, cell-based; details: hep 3b2, 48 h
[28] = Toxicity in ICR mouse assessed as liver damage at 50 to 200 mg/kg, po administered every other day for 14 days; assay type: organism-based; details: in vivo, 336 h, dose 50-200 mg/kg, time 14 day
[29] = Tmax in Sprague-Dawley rat at 10 mg/kg, po measured upto 24 hrs by LC-MS/MS analysis; assay type: ADME, organism-based; details: in vivo
[30] = Hepatotoxicity in ICR mouse at 50 to 200 mg/kg, po administered every other day for 14 days; assay type: toxicity, organism-based; details: in vivo, 336 h, dose 50-200 mg/kg, time 14 day
[31] = Toxicity in ICR mouse assessed as lung damage at 50 to 200 mg/kg, po administered every other day for 14 days; assay type: organism-based; details: in vivo, 336 h, dose 50-200 mg/kg, time 14 day
Erythrocyte = assay: Upregulation of reticulocytes in C57BL/6J mouse assessed as increase in RBC at 10 to 50 mg/kg, po administered once daily for 3 days; assay type: functional, organism-based; details: dose 10-50 mg/kg, time 3.0 day
[32] = Mean residence time (0 to infinity) in mouse at 1 mg/kg, iv measured upto 24 hrs by LC-MS/MS analysis; assay type: ADME, organism-based; details: in vivo
[33] = Clearance in Sprague-Dawley rat at 1 mg/kg, iv measured upto 24 hrs by LC-MS/MS analysis; assay type: ADME, organism-based; details: in vivo
[34] = Toxicity in ICR mouse assessed as animal death at 800 mg/kg, po; assay type: organism-based; details: in vivo
[35] = Half life in mouse at 10 mg/kg, po measured upto 24 hrs by LC-MS/MS analysis; assay type: ADME, organism-based; details: in vivo
[36] = Toxicity in ICR mouse assessed as change in kidney to body weight ratio at 50 to 200 mg/kg, po administered every other day for 14 days; assay type: organism-based; details: in vivo, 336 h, dose 50-200 mg/kg, time 14 day
[37] = Toxicity in ICR mouse assessed as behavioral abnormalities at 50 to 200 mg/kg, po administered every other day for 14 days; assay type: organism-based; details: in vivo, 336 h, dose 50-200 mg/kg, time 14 day
[38] = Mean residence time (0 to infinity) in Sprague-Dawley rat at 1 mg/kg, iv measured upto 24 hrs by LC-MS/MS analysis; assay type: ADME, organism-based; details: in vivo
[39] = AUC(0 to t) in mouse at 10 mg/kg, po measured upto 24 hrs by LC-MS/MS analysis; assay type: ADME, organism-based; set-up: dose 10 mg/kg, time < 24 hrs, route po; details: in vivo
[40] = Clearance in Sprague-Dawley rat at 10 mg/kg, po measured upto 24 hrs by LC-MS/MS analysis; assay type: ADME, organism-based; details: in vivo
[41] = Oral bioavailability in mouse at 10 mg/kg measured upto 24 hrs by LC-MS/MS analysis; assay type: ADME, organism-based; details: in vivo
[42] = Mean residence time (0 to infinity) in mouse at 10 mg/kg, po measured upto 24 hrs by LC-MS/MS analysis; assay type: ADME, organism-based; details: in vivo
[43] = AUC(0 to infinity) in Sprague-Dawley rat at 10 mg/kg, po measured upto 24 hrs by LC-MS/MS analysis; assay type: ADME, organism-based; set-up: dose 10 mg/kg, time < 24 hrs, route po; details: in vivo
[44] = Toxicity in ICR mouse assessed as spleen damage at 50 to 200 mg/kg, po administered every other day for 14 days; assay type: organism-based; details: in vivo, 336 h, dose 50-200 mg/kg, time 14 day
[45] = Nephrotoxicity in ICR mouse at 50 to 200 mg/kg, po administered every other day for 14 days; assay type: toxicity, organism-based; details: in vivo, 336 h, dose 50-200 mg/kg, time 14 day
[46] = Toxicity in ICR mouse assessed as effect on body weight at 50 to 200 mg/kg, po administered every other day for 14 days; assay type: organism-based; details: in vivo, 336 h, dose 50-200 mg/kg, time 14 day
[47] = Apparent volume of distribution in mouse at 10 mg/kg, po measured upto 24 hrs by LC-MS/MS analysis; assay type: ADME, organism-based; details: in vivo
Mus musculus = assay: Upregulation of reticulocytes in C57BL/6J mouse at 10 mg/kg, po administered once daily for 3 days; assay type: functional, organism-based; details: time 3.0 day
[48] = AUC(0 to infinity) in mouse at 1 mg/kg, iv measured upto 24 hrs by LC-MS/MS analysis; assay type: ADME, organism-based; set-up: time < 24 hrs, dose 1 mg/kg, route iv; details: in vivo
[49] = Toxicity in ICR mouse assessed as effect on food intake at 50 to 200 mg/kg, po administered every other day for 14 days; assay type: organism-based; details: in vivo, 336 h, dose 50-200 mg/kg, time 14 day
[50] = Toxicity in ICR mouse assessed as heart damage at 50 to 200 mg/kg, po administered every other day for 14 days; assay type: organism-based; details: in vivo, 336 h, dose 50-200 mg/kg, time 14 day
[51] = AUC(0 to infinity) in Sprague-Dawley rat at 1 mg/kg, iv measured upto 24 hrs by LC-MS/MS analysis; assay type: ADME, organism-based; set-up: time < 24 hrs, dose 1 mg/kg, route iv; details: in vivo
[52] = Apparent volume of distribution in Sprague-Dawley rat at 1 mg/kg, iv measured upto 24 hrs by LC-MS/MS analysis; assay type: ADME, organism-based; details: in vivo, read-out: Vz

Sequence of Egl nine homolog 1 (Q9GZT9 whole entry, the tested form may be a part): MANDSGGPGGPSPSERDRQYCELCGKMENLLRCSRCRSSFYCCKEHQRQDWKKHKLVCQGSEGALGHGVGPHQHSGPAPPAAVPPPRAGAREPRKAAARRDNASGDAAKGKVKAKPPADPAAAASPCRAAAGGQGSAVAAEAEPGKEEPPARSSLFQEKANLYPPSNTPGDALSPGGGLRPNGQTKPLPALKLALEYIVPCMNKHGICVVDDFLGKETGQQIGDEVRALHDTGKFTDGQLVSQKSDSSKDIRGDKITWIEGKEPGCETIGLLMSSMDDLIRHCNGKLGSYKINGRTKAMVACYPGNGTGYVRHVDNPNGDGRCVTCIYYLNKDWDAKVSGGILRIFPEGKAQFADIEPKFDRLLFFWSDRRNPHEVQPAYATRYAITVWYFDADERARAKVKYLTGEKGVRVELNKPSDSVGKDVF
Sequence of Hypoxia-inducible factor 1-alpha (Homo sapiens) (Q16665 whole entry, looked up): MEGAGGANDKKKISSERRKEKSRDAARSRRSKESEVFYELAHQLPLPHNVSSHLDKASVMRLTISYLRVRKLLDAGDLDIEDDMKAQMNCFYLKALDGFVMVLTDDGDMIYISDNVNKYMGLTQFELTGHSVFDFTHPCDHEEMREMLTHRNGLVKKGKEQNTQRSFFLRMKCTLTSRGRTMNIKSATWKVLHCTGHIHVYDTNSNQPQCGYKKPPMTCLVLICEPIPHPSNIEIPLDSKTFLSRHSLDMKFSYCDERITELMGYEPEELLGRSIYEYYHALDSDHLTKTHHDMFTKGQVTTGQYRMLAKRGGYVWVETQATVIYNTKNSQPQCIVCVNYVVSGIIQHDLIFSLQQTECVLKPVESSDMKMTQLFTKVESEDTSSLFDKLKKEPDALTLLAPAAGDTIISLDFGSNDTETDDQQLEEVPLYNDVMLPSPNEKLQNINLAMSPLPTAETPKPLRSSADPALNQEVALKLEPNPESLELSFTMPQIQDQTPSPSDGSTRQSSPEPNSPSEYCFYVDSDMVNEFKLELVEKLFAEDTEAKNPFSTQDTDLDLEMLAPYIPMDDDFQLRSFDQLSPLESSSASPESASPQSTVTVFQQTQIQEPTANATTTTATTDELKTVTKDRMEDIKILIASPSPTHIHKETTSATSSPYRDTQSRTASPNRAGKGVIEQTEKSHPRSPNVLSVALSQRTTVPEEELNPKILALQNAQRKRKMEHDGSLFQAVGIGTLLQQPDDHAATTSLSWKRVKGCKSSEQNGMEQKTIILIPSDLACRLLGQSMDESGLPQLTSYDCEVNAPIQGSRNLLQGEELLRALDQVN
Sequence of Endothelial PAS domain-containing protein 1 (Homo sapiens) (Q99814 whole entry, the tested form may be a part): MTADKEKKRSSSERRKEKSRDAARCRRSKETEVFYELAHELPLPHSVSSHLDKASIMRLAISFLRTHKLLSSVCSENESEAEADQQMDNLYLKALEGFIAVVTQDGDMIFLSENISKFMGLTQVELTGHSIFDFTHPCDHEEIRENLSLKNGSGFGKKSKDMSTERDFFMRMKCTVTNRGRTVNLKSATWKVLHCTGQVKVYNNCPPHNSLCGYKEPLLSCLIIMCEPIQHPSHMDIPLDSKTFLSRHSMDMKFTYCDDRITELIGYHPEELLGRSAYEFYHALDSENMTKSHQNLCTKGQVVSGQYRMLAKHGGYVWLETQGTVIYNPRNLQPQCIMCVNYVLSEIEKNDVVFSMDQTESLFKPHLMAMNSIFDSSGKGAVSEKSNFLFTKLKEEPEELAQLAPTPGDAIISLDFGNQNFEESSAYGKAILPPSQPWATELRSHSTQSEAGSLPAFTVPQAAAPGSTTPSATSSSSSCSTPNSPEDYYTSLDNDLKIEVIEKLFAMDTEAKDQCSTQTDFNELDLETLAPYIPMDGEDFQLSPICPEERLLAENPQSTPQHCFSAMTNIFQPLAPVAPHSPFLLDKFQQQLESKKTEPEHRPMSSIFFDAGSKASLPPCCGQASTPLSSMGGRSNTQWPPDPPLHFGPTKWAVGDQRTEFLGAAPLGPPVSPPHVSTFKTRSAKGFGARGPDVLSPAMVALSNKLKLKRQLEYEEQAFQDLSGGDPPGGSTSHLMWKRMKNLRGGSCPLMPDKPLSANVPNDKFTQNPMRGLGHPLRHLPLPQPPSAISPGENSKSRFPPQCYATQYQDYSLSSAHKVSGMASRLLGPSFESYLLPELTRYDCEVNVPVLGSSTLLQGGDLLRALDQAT

SMILES: O=C(O)CNC(=O)c1ncc(C2CCN(C(=O)c3cccc(Cl)c3)CC2)cc1O
- IC50 (Egl nine homolog 1): 195 nM

SMILES: O=C(O)CNC(=O)c1ncc(C2CCN(C(=O)CNc3ccc(Cl)cc3)CC2)cc1O
- Activity [1]: Non-Toxic
- Activity [2]: Non-Toxic
- Activity [3]: Non-Toxic
- fold change (FC) [4]: 11
- MRT inf [5]: 33.6 min
- bioavailability [6]: 33.9%
- Cmax [7]: 3040 ng/mL
- Activity [8]: Active
- Vd [9]: 0.345 L/kg
- Activity [10]: Non-Toxic
- Activity [11]: Active
- half-life [12]: 223 min
- Activity [13]: Non-Toxic
- AUC(0-inf) [14]: 4490 ng·h/mL
- clearance [15]: 12 mL/min/kg
- Cmax [16]: 26100 ng/mL
- AUC(0-t) at 24 h [17]: 7120 ng·h/mL
- half-life [18]: 19.8 min
- AUC(0-t) at 24 h [19]: 1380 ng·h/mL
- Activity (Hep 3B2 [20]): inactive
- microsomal CLint at 1 µM [21]: 3.8 µL/min/mg
- Activity (Hep 3B2 [22]): Dose-Dependent Effect
- AUC(0-t) at 24 h [23]: 2060 ng·h/mL
- Tmax [24]: 30 min
- Vz [25]: 4.692 L/kg
- CL/F [26]: 37.4 mL/min/kg
- Activity (Hep 3B2 [27]): Non-Toxic
- Activity [28]: Non-Toxic
- Tmax [29]: 4.8 min
- Activity [30]: Non-Toxic
- Activity [31]: Non-Toxic
- Activity (Erythrocyte): Dose-Dependent Effect
- MRT inf [32]: 31.8 min
- clearance [33]: 8.05 mL/min/kg
- Activity [34]: Non-Toxic
- half-life [35]: 70.2 min
- Activity [36]: Non-Toxic
- Activity [37]: Non-Toxic
- MRT inf [38]: 92.4 min
- AUC(0-t) at 24 h [39]: 4480 ng·h/mL
- CL/F [40]: 23.6 mL/min/kg
- bioavailability [41]: 35.3%
- MRT inf [42]: 100 min
- AUC(0-inf) [43]: 7140 ng·h/mL
- Activity [44]: Non-Toxic
- Activity [45]: Non-Toxic
- Activity [46]: Non-Toxic
- Vz [47]: 4.532 L/kg
- Activity (Mus musculus): Active
- AUC(0-inf) [48]: 1390 ng·h/mL
- Activity [49]: Non-Toxic
- Activity [50]: Non-Toxic
- AUC(0-inf) [51]: 2110 ng·h/mL
- Vd [52]: 2.64 L/kg
- IC50 (Egl nine homolog 1): 22.5 nM

SMILES: O=C(O)CNC(=O)c1ncc(C2CCN(C(=O)c3ccc(C(F)(F)F)cc3)CC2)cc1O
- microsomal CLint at 1 µM [21]: 3.7 µL/min/mg
- Activity (Mus musculus): Active
- IC50 (Egl nine homolog 1): 44.3 nM

SMILES: O=C(O)CNC(=O)c1ncc(C2CCN(C(=O)CNc3ccc(Cl)cc3Cl)CC2)cc1O
- IC50 (Egl nine homolog 1): 32.5 nM
